± gives the expanded uncertainty stated by the source.
Assay: xn = mol fraction of the nth substance listed
Conditions: Liquid, Vibrating tube method

COC(=O)OC [dimethyl carbonate] + CCCO
mass density [kg/m3]
Conditions	100 kPa	5000 kPa	10000 kPa	15000 kPa	20000 kPa	25000 kPa	30000 kPa	35000 kPa	40000 kPa
293.15 K, x1 = 0.0273	–	–	–	821.94 ± 1.4	825.23 ± 1.4	828.56 ± 1.4	831.57 ± 1.4	834.42 ± 1.4	837.07 ± 1.4
293.15 K, x1 = 0.0506	–	–	–	828.58 ± 1.4	831.87 ± 1.4	835.25 ± 1.4	838.27 ± 1.4	841.13 ± 1.4	843.83 ± 1.4
293.15 K, x1 = 0.0755	–	–	–	835.71 ± 1.4	839.06 ± 1.4	842.44 ± 1.4	845.52 ± 1.4	848.42 ± 1.4	851.14 ± 1.4
293.15 K, x1 = 0.1007	–	–	–	842.9 ± 1.4	846.25 ± 1.4	849.69 ± 1.4	852.76 ± 1.4	855.68 ± 1.4	858.39 ± 1.4
293.15 K, x1 = 0.1495	–	–	–	856.75 ± 1.4	860.16 ± 1.4	863.6 ± 1.4	866.73 ± 1.4	869.7 ± 1.4	872.48 ± 1.4
293.15 K, x1 = 0.2003	–	–	–	871.06 ± 1.4	874.53 ± 1.4	878.01 ± 1.4	881.2 ± 1.4	884.18 ± 1.4	887.03 ± 1.4
293.15 K, x1 = 0.2529	–	–	882.09 ± 1.4	885.77 ± 1.4	889.3 ± 1.4	892.84 ± 1.4	896.04 ± 1.4	899.12 ± 1.4	902.04 ± 1.4
293.15 K, x1 = 0.2993	–	–	894.95 ± 1.4	898.64 ± 1.4	902.18 ± 1.4	905.76 ± 1.4	909.02 ± 1.4	912.16 ± 1.4	915.09 ± 1.4
293.15 K, x1 = 0.3497	–	–	908.71 ± 1.4	912.45 ± 1.4	916.05 ± 1.4	919.68 ± 1.4	923 ± 1.4	926.2 ± 1.4	929.19 ± 1.5
293.15 K, x1 = 0.401	–	–	922.59 ± 1.4	926.38 ± 1.4	930.03 ± 1.4	933.72 ± 1.5	937.09 ± 1.5	940.3 ± 1.5	943.36 ± 1.5
293.15 K, x1 = 0.4509	–	–	936.03 ± 1.4	939.87 ± 1.5	943.59 ± 1.5	947.28 ± 1.5	950.71 ± 1.5	953.97 ± 1.5	957.05 ± 1.5
293.15 K, x1 = 0.5002	–	–	949.24 ± 1.5	953.09 ± 1.5	956.87 ± 1.5	960.6 ± 1.5	964.04 ± 1.5	967.36 ± 1.5	970.51 ± 1.5
293.15 K, x1 = 0.5498	–	–	962.47 ± 1.5	966.32 ± 1.5	970.1 ± 1.5	973.84 ± 1.5	977.34 ± 1.5	980.72 ± 1.5	983.88 ± 1.5
293.15 K, x1 = 0.5996	–	–	975.61 ± 1.5	979.51 ± 1.5	983.36 ± 1.5	987.15 ± 1.5	990.65 ± 1.5	994.04 ± 1.5	997.26 ± 1.5
293.15 K, x1 = 0.6499	–	–	988.81 ± 1.5	992.77 ± 1.5	996.62 ± 1.5	1000.46 ± 1.5	1004.03 ± 1.5	1007.42 ± 1.5	1010.66 ± 1.5
293.15 K, x1 = 0.7006	–	–	1002.08 ± 1.5	1006.04 ± 1.5	1009.95 ± 1.5	1013.8 ± 1.5	1017.37 ± 1.5	1020.81 ± 1.5	1024.12 ± 1.5
293.15 K, x1 = 0.7471	–	–	1014.07 ± 1.5	1018.08 ± 1.5	1022.06 ± 1.5	1025.95 ± 1.5	1029.53 ± 1.5	1032.98 ± 1.5	1036.36 ± 1.5
293.15 K, x1 = 0.7989	–	–	1027.41 ± 1.5	1031.43 ± 1.5	1035.41 ± 1.5	1039.31 ± 1.5	1042.94 ± 1.5	1046.46 ± 1.5	1049.84 ± 1.6
293.15 K, x1 = 0.8491	–	–	1040.37 ± 1.5	1044.44 ± 1.5	1048.43 ± 1.5	1052.38 ± 1.6	1056.08 ± 1.6	1059.59 ± 1.6	1063.05 ± 1.6
293.15 K, x1 = 0.8993	–	–	1053.34 ± 1.5	1057.42 ± 1.6	1061.47 ± 1.6	1065.42 ± 1.6	1069.12 ± 1.6	1072.65 ± 1.6	1076.12 ± 1.6
293.15 K, x1 = 0.9249	–	–	1059.86 ± 1.6	1063.94 ± 1.6	1067.99 ± 1.6	1071.94 ± 1.6	1075.65 ± 1.6	1079.23 ± 1.6	1082.7 ± 1.6
293.15 K, x1 = 0.9489	–	–	1065.93 ± 1.6	1070.01 ± 1.6	1074.07 ± 1.6	1078.02 ± 1.6	1081.73 ± 1.6	1085.31 ± 1.6	1088.8 ± 1.6
293.15 K, x1 = 0.9743	–	–	1072.35 ± 1.6	1076.43 ± 1.6	1080.5 ± 1.6	1084.5 ± 1.6	1088.21 ± 1.6	1091.8 ± 1.6	1095.29 ± 1.6
293.15 K, x1 = 1	–	–	1078.93 ± 0.58	1083.01 ± 0.59	1087.08 ± 0.6	1091.03 ± 0.61	1094.75 ± 0.63	1098.34 ± 0.64	1101.84 ± 0.66
298.15 K, x1 = 0.0273	807.06 ± 1.4	810.99 ± 1.4	814.7 ± 1.4	818.11 ± 1.4	821.44 ± 1.4	–	–	–	–
298.15 K, x1 = 0.0506	813.55 ± 1.4	817.52 ± 1.4	821.28 ± 1.4	824.74 ± 1.4	828.12 ± 1.4	–	–	–	–
298.15 K, x1 = 0.0755	820.52 ± 1.4	824.54 ± 1.4	828.31 ± 1.4	831.81 ± 1.4	835.25 ± 1.4	–	–	–	–
298.15 K, x1 = 0.1007	827.5 ± 1.4	831.52 ± 1.4	835.34 ± 1.4	838.84 ± 1.4	842.29 ± 1.4	–	–	–	–
298.15 K, x1 = 0.1495	841.12 ± 1.4	845.19 ± 1.4	849.06 ± 1.4	852.61 ± 1.4	856.13 ± 1.4	–	–	–	–
298.15 K, x1 = 0.2003	855.15 ± 1.4	859.27 ± 1.4	863.19 ± 1.4	866.8 ± 1.4	870.37 ± 1.4	–	–	–	–
298.15 K, x1 = 0.2529	869.54 ± 1.4	873.66 ± 1.4	877.64 ± 1.4	881.29 ± 1.4	884.88 ± 1.4	–	–	–	–
298.15 K, x1 = 0.2993	882.18 ± 1.4	886.34 ± 1.4	890.38 ± 1.4	894.08 ± 1.4	897.73 ± 1.4	–	–	–	–
298.15 K, x1 = 0.3497	895.71 ± 1.4	899.93 ± 1.4	904.02 ± 1.4	907.77 ± 1.4	911.48 ± 1.4	–	–	–	–
298.15 K, x1 = 0.401	909.36 ± 1.4	913.63 ± 1.4	917.77 ± 1.4	921.57 ± 1.4	925.35 ± 1.4	–	–	–	–
298.15 K, x1 = 0.4509	922.58 ± 1.4	926.89 ± 1.4	931.09 ± 1.4	934.95 ± 1.4	938.74 ± 1.5	–	–	–	–
298.15 K, x1 = 0.5002	935.57 ± 1.4	939.93 ± 1.4	944.14 ± 1.5	948.04 ± 1.5	951.89 ± 1.5	–	–	–	–
298.15 K, x1 = 0.5498	948.57 ± 1.5	952.93 ± 1.5	957.19 ± 1.5	961.1 ± 1.5	–	–	–	–	–
298.15 K, x1 = 0.5996	961.54 ± 1.5	965.95 ± 1.5	970.21 ± 1.5	974.17 ± 1.5	–	–	–	–	–
298.15 K, x1 = 0.6499	974.52 ± 1.5	978.92 ± 1.5	983.24 ± 1.5	987.25 ± 1.5	–	–	–	–	–
298.15 K, x1 = 0.7006	987.56 ± 1.5	992.01 ± 1.5	996.39 ± 1.5	1000.44 ± 1.5	–	–	–	–	–
298.15 K, x1 = 0.7471	999.38 ± 1.5	1003.88 ± 1.5	1008.26 ± 1.5	1012.37 ± 1.5	–	–	–	–	–
298.15 K, x1 = 0.7989	1012.54 ± 1.5	1017.09 ± 1.5	1021.53 ± 1.5	1025.64 ± 1.5	–	–	–	–	–
298.15 K, x1 = 0.8491	1025.27 ± 1.5	1029.83 ± 1.5	1034.32 ± 1.5	1038.48 ± 1.5	–	–	–	–	–
298.15 K, x1 = 0.8993	1038.07 ± 1.5	1042.62 ± 1.5	1047.12 ± 1.5	1051.28 ± 1.5	–	–	–	–	–
298.15 K, x1 = 0.9249	1044.52 ± 1.5	1049.07 ± 1.5	1053.57 ± 1.5	1057.78 ± 1.6	–	–	–	–	–
298.15 K, x1 = 0.9489	1050.53 ± 1.5	1055.08 ± 1.5	1059.58 ± 1.6	1063.79 ± 1.6	–	–	–	–	–
298.15 K, x1 = 0.9743	1056.89 ± 1.6	1061.44 ± 1.6	1065.95 ± 1.6	1070.16 ± 1.6	–	–	–	–	–
298.15 K, x1 = 1	1063.45 ± 0.56	1068 ± 0.57	1072.51 ± 0.58	1076.72 ± 0.59	–	–	–	–	–

Reference: the NIST ThermoML archive (doi:10.1016/j.jct.2019.02.011)
